Laboratory results as given in US20260364101A1, “OLEUROPEIN IN THE MANAGEMENT OF CANCER” (FUNDACIÓN MIGUEL SERVET, priority 2023, published 2026).

Columns and labels:
CD4 T cells [1] = experiment: mixed lymphocyte reaction (MLR) with TAMs as stimulator cells (FIG. 1c,d); type: cell-based, mouse; conditions: treated TAMs as stimulators; 5 days
Procedure: (§1) MLR were carried out following standard procedures. Briefly, 100,000 MDSCs or TAMs from C57BL/6 mice were co-cultured in 96-well plates with 100,000 lymphocytes from BALB/c mice. Co-cultured cells were treated with 50 µM oleuropein and compared with control vehicle. After 5 days, T-lymphocyte activation, differentiation and proliferation were assessed by flow cytometry. T-cell activation and proliferation markers (Ki-67) and pro-inflammatory cytokine production (IL-2 and IFNγ) were evaluated by flow cytometry in CD4 and CD8 T cells as described before.
Surface and intracellular staining were carried out as described before with the following fluorochrome-conjugated antibody clones: AF488 anti-CD49d (R1-2), PE anti-CD4 (GK1.5), APCanti-CD8(53-6.7), brilliant Violet 510™ anti-I-A/I-E (M5/114.15.2,PE/Cyanine7anti-Ly-6G (1A8), and APC anti-CD80 (16-10A1) (Biolegend), FITC anti-IL-12 (C15.6) and BV421 anti-IL-2 (JES6-5H4) (BD Bioscience), APC-Vio® 770 anti-Ly-6C (REA796), PE REAfinity™ anti-F4/80 (REA126), and APC anti-CD68 (REA886) (Miltenyi), PerCP-Cyanine5.5 Anti-Human/Mouse CD11b (M1/70) (Tonbo), and AF488 anti-IFNγ (Clone XMG1.2) (BD Pharmigen). […]

CD4 T cells [2] = experiment: mixed lymphocyte reaction (MLR) with MDSCs as stimulator cells (FIG. 1c,d); type: cell-based, mouse; conditions: treated MDSCs as stimulators; 5 days
Procedure: as §1
(§2) Surface and intracellular staining were carried out as described before with the following fluorochrome-conjugated antibody clones: AF488 anti-CD49d (R1-2), PE anti-CD4 (GK1.5), APCanti-CD8(53-6.7), brilliant Violet 510™ anti-I-A/I-E (M5/114.15.2,PE/Cyanine7anti-Ly-6G (1A8), and APC anti-CD80 (16-10A1) (Biolegend), FITC anti-IL-12 (C15.6) and BV421 anti-IL-2 (JES6-5H4) (BD Bioscience), APC-Vio® 770 anti-Ly-6C (REA796), PE REAfinity™ anti-F4/80 (REA126), and APC anti-CD68 (REA886) (Miltenyi), PerCP-Cyanine5.5 Anti-Human/Mouse CD11b (M1/70) (Tonbo), and AF488 anti-IFNγ (Clone XMG1.2) (BD Pharmigen). For human cells, it was used the following fluorochrome-conjugated antibodies: PerCP-Cy5.5-anti-CD11b (integrina alfa M) (M1/70), Violet Fluor 450 anti-CD14 antibody (61D3) (Tonbo), PE anti-CD115 (CSF-1R) (9-4D2-1E4) (Biolegend), PE-Cy™7 anti-CD11c (Clone B-ly6) (BD Bioscience), and APC anti-HLA-DR (REA517) (Miltenyi).

TAMs = experiment: ex vivo differentiated TAMs treated with compound, marker expression by flow cytometry (FIG. 1b); type: cell-based, mouse; conditions: BML-275 500 nM
Procedure: (§3) Immunosuppressive myeloid cell subsets resembling tumor-infiltrating subsets (g-MDSCs, m-MDSCs and TAMs) were differentiated from mouse bone marrow following published procedures using conditioning medium produced by LLC tumor cells stably expressing GMCSF and MCSF cells. g- and m-MDSCs were purified using the myeloid-derived suppressor cell isolation kit (Miltenyi Biotec, Bergisch, Germany) according to manufacturer's recommendations. MDSCs and TAMs were seeded with 500 nM BML-275 or 50 μM oleuropein and incubated for seven days.
as §2
(§4) Data were collected using the FACSCanto Flow Cytometer (BD Biosciences) for ex vivo and in vitro experiments at Navarrabiomed Biomedical Research Center and Cyroflex LX flow cytometer (Beckman Counter). Data were analyzed with Flowjo.

MDSCs = experiment: ex vivo differentiated MDSCs treated with compound, marker expression by flow cytometry (FIG. 1a); type: cell-based, mouse; conditions: BML-275 500 nM alone or with oleuropein 50 μM; MDSCs
Procedure: as §3, §2, §4

MDSC and CD3 T cells = conditions: related art; cited from earlier work

c1cc(-c2cnn3cc(-c4ccc(OCCN5CCCCC5)cc4)cnc23)ccn1 [BML-275, reference compound]
CD4 T cell stimulation assessed by IFNγ and IL-2 production (CD4 T cells [1]): weaker
CD4 T cell stimulation assessed by IFNγ and IL-2 production (CD4 T cells [2]): weaker
CD68 (M1 marker) (TAMs; AMPK inhibition in TAMs): increased
cells co-expressing MHC-II and CD80 (TAMs; oleuropein 50 μM, TAMs): significant elevation
expression of CD49d (MDSCs): reduced

Nc1ccn([C@@H]2O[C@H](CO)[C@@H](O)C2(F)F)c(=O)n1 [gemcitabine]
effect on MDSC and CD3 T cells (MDSC and CD3 T cells): simultaneously reduces the MDSC and the CD3 T cells
